Converted amounts (≈) assume the structure as drawn. The source made the active and inactive calls. The calls are words filed in the database; no cut-off is given here.
Key:
THP-1 [1] = test: Ratio of cytotoxic IC50 for human THP1 (+/+) cells expressing wild type SAMHD1 to cytotoxic IC50 for human THP1 cells with CRISP/CAS9 SAMHD1 knockout; type: functional
THP-1 [2] = test: Ratio of cytotoxic IC50 for human THP1 cells with constitutively expressing high SAMHD1 expression to cytotoxic IC50 for parental human THP1 cells expressing low SAMHD1 expression; type: functional
U-251 = test: Cytotoxic activity against human U251MG cells assessed as reduction in cell viability incubated for 96 hrs by MTT assay; type: functional, cell-based; details: U-251, 96 h
[3] = target: Deoxynucleoside triphosphate triphosphohydrolase SAMHD1 (Homo sapiens) (UniProt Q9Y3Z3); test: Substrate activity at SAMHD1 (unknown origin) expressed in bacterial system expressed in bacteria assessed as triphospho-hydolase activity by measuring cytarabine tri-phosphate […]
HEL = test: Cytotoxic activity against human HEL cells assessed as reduction in cell viability at 10 to 50 ug/ml in presence of lentiviral protein X- virus-like particles incubated for 96 hrs by MTT assay; type: functional, cell-based
HL-60 = test: Cytotoxic activity against human HL60 cells assessed as reduction in cell viability at 10 to 50 ug/ml in presence of lentiviral protein X- virus-like particles incubated for 96 hrs by MTT assay; type: functional, cell-based
MOLM-13 = test: Cytotoxic activity against human MOLM13 cells assessed as reduction in cell viability at 10 to 50 ug/ml in presence of lentiviral protein X- virus-like particles incubated for 96 hrs by MTT assay; type: functional, cell-based

Sequence of Deoxynucleoside triphosphate triphosphohydrolase SAMHD1 (Homo sapiens) (Q9Y3Z3 whole entry): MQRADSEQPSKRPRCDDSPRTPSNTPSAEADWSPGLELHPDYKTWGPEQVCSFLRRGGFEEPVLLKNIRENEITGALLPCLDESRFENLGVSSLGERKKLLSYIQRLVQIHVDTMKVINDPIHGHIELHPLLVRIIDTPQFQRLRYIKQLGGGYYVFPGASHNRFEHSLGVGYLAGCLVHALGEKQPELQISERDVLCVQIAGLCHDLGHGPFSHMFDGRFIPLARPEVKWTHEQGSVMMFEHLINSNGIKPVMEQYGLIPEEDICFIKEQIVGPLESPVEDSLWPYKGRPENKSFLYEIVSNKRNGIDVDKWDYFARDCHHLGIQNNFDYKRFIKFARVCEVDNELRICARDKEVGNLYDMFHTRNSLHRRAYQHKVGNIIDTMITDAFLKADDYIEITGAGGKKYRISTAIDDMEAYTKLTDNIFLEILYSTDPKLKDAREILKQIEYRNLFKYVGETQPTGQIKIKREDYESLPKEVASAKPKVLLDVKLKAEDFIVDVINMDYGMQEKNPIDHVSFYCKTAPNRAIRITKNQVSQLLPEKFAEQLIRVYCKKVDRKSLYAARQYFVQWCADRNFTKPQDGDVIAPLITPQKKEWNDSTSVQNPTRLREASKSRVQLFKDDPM

| Structure (SMILES) | Ratio IC50 (THP-1 [1]) | Ratio IC50 (THP-1 [2]) | also measured |
| --- | --- | --- | --- |
| Nc1nc(Cl)nc2c1ncn2[C@H]1C[C@H](O)[C@@H](CO)O1 [CLADRIBINE] | 1 | 2 |  |
| Nc1nc(Cl)nc2c1ncn2[C@@H]1O[C@H](CO)[C@@H](O)[C@@H]1F [CLOFARABINE] |  | 11 |  |
| Nc1ccn([C@@H]2O[C@H](CO)[C@@H](O)[C@@H]2O)c(=O)n1 [CYTARABINE] |  |  | IC50 (U-251): 0.022 µg/mL (≈ 0.0905 µM); Activity [3]: Active; Activity (HEL): Active; Activity (HL-60): Active; Activity (MOLM-13): Active |
| COc1cccc2c1C(=O)c1c(O)c3c(c(O)c1C2=O)C[C@@](O)(C(C)=O)C[C@@H]3O[C@H]1C[C@H](N)[C@H](O)[C@H](C)O1 [DAUNORUBICIN] | 1 | 1 |  |
| Nc1ncn([C@H]2C[C@H](O)[C@@H](CO)O2)c(=O)n1 [DECITABINE] | 9 | 6 |  |
| Nc1nc(F)nc2c1ncn2[C@@H]1O[C@H](CO)[C@@H](O)[C@@H]1O [FLUDARABINE] |  | 6 |  |
| Nc1ccn([C@@H]2O[C@H](CO)[C@@H](O)C2(F)F)c(=O)n1 [GEMCITABINE] | 1 | 0.5 |  |
| COc1nc(N)nc2c1ncn2[C@@H]1O[C@H](CO)[C@@H](O)[C@@H]1O [NELARABINE] |  | 4 |  |
| NC(=O)c1ncn([C@@H]2O[C@H](CO)[C@@H](O)[C@H]2O)n1 [RIBAVIRIN] | 0.5 | 0.5 |  |
| Nc1nc2[nH]cnc2c(=S)[nH]1 [THIOGUANINE] | 1 | 1 | Activity [3]: Active |

Source: ChEMBL document CHEMBL4420068, “Samhd1 modulation for treating resistance to cancer therapy” (2018)
